# Where two headings read alike, the source gives them in different places.
# Biological target: T1, β-catenin/Tcf protein-protein interaction (Homo sapiens, UniProt P35222)
# T1 construct: Wild-type β-catenin (residues 138-781) were cloned into a pET-28b vector; 6×histidine (C); made in house; host or cells: E. coli BL21 DE3
# T1 sequence (P35222 138-781): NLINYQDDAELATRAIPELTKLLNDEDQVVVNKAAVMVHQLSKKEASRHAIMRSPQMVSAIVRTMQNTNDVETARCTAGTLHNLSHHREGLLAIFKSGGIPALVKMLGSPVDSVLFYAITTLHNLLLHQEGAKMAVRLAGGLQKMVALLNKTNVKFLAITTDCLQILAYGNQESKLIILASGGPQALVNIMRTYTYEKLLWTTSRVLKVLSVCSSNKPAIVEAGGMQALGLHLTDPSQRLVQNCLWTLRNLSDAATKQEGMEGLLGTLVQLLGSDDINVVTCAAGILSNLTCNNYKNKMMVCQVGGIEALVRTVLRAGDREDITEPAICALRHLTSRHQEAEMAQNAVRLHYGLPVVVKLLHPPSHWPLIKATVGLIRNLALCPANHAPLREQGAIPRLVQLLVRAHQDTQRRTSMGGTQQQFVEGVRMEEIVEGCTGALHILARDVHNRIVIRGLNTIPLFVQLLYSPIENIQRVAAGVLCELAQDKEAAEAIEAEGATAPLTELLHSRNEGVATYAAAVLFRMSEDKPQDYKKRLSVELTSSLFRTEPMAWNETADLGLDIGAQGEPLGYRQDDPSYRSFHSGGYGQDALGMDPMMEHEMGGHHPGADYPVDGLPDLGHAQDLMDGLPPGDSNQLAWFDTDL
# Assay: FP competitive inhibition assay
# Type: binding
# Protocol: Protein Expression and Purification. Wild-type β-catenin (residues 138-781) were cloned into a pET-28b vector carrying a C-terminal 6×histidine (Novagen) and transformed into E. coli BL21 DE3 (Novagen). Cells were cultured in LB medium with 30 μg/mL kanamycin until the OD600 was approximately 0.8, and then protein expression was induced with 400 μM of IPTG at 20° C. overnight. Cells were lysed by sonication. The proteins were purified by Ni-NTA affinity chromatography (30210, Qiagen) and dialyzed against a buffer containing 20 mM of Tris (pH 8.8), 100 mM NaCl, 10% glycerol, and 3 mM DTT. The purity of β-catenin was set to >95% as determined by SDS-PAGE gel analysis. Native non-denaturing gel electrophoresis experiment and the thermal-shift assay on an iCycler iQ Real Time Detection System (Bio-Rad) were performed for each purified protein. In the thermal shift assay, protein unfolding was evaluated through measuring the fluorescence changes of fluorescent dye Sypro Orange with purified β-catenin proteins. A temperature increment of 1° C./min was applied to monitor protein stability and detect protein aggregation. CD spectra were measured on a J-815 spectropolarimeter (Jasco). All spectra were recorded using a 1 mm path-length quartz cell. The CD spectra were averaged over three scans, and the wavelength was scanned from 260 to 190 nm in step of 1 nm. All spectra were recorded at room temperature, and the baseline was corrected by subtracting the CD spectra of a blank control containing all of the substances except protein. Samples were prepared at a concentration around 1-5 μM in a buffer of 10 mM potassium phosphate and 100 mM potassium fluoride at pH 7.0 to ensure that the transmission of light through the sample was not restricted. All proteins were stable, and no aggregation was observed under storage or assay conditions. Proteins were aliquoted and stored at −80° C. C-terminally fluorescein-labeled human Tcf4 (residues 7-51) was synthesized and HPLC purified with purity >95%. The structures were validated by LC/MS (liquid chromatography/mass spectrometry).
# FP Assays. The procedures for the FP competitive inhibition assays have been described previously (Zhang, M.; Huang, Z.; Yu, B.; Ji, H. New homogeneous high-throughput assays for inhibitors of β-catenin/Tcf protein-protein interactions Anal. Biochem. 2012, 424, 57-63; Zhang, M.; Catrow, J. L.; Ji, H. High-throughput selectivity assays for small-molecule inhibitors of β-catenin/T-cell factor protein-protein interactions. ACS Med. Chem. Lett. 2013, 4, 306-311). Briefly, all of the tested compounds were prepared as 10 mM DMSO stocks. In the primary screen, the concentrations of the compounds and DMSO were set to 50 μM and 1% (v/v). Only the compounds which FP signal decreases were greater than 50% in the single-point β-catenin/Tcf assay were evaluated by counter screen. […] In the FP competitive inhibition assay, 10 nM human β-catenin and 2.5 nM of C-terminally fluorescein-labeled human Tcf4 were incubated in an assay buffer of 137 mM NaCl, 2.7 mM KCl, 10 mM Na2HPO4, 2 mM KH2PO4, 100 μg/mL of bovine γ-globulin, and 0.01% Triton-X100 for 15 min at 4° C. Bovine γ-globulin and Triton-X100 were included in the assay buffer to decrease the likelihood of compound acting by aggregate formation. Different concentrations of the tested compounds in the assay buffer were added to each test plate to make a final volume of 100 μL. Each assay plate was covered black and gently mixed on an orbital shaker at 4° C. for 1.5 h to reach equilibrium before the polarization values were read. The IC50 value was determined by nonlinear least-square analysis of GraphPad Prism 5.0. The Ki values were derived (Nikolovska-Coleska, Z.; Wang, R.; Fang, X.; Pan, H.; Tomita, Y.; Li, P.; Roller, P. P.; Krajewski, K.; Saito, N. G.; Stuckey, J. A.; Wang, S. Development and optimization of a binding assay for the XIAP BIR3 domain using fluorescence polarization. Anal. Biochem. 2004, 332, 261-273). […]
# [1] = Assay 1, mean ± SD (n = 3), read-out: Ki ± SD, Assay 1
# [2] = Assay 2, mean ± SD (n = 3), read-out: Ki ± SD, Assay 2
SMILES,Ki [1] [µM],Ki [2] [µM],"Ki (Assay 3, mean ± SD (n = 3), read-out: Ki ± SD, Assay 3) [µM]"
"COc1ccc2sc(CCc3c(CCc4ccc(Cl)cc4)c4cc(C(=O)NCc5cccc(Cl)c5)ccc4n3CCc3nn[nH]n3)nc2c1 [Compound 53, 1-(2-(2H-tetrazol-5-yl)ethyl)-N-(3-chlorobenzyl)-3-(4-chlorophenethyl)-2-(2-(5-methoxybenzo[d]thiazol-2-yl)ethyl)-1H-indole-5-carboxamide]",2.7 ± 0.34,6.1 ± 1.2,
"COc1ccc2sc(CCc3c(CCc4ccc(Cl)cc4)c4cc(C(=O)NCCOc5ccc(Cl)cc5)ccc4n3CCc3nn[nH]n3)nc2c1 [Compound 50, 1-(2-(2H-tetrazol-5-yl)ethyl)-3-(4-chlorophenethyl)-N-(2-(4-chlorophenoxy)ethyl)-2-(2-(5-methoxybenzo[d]thiazol-2-yl)ethyl)-1H-indole-5-carboxamide]",3.2 ± 0.28,,
"O=C(O)c1ccc2c(c1)c(CCc1ccc(Cl)cc1)cn2CCc1nn[nH]n1 [Compound 6, 1-(2-(2H-tetrazol-5-yl)ethyl)-3-(4-chlorophenethyl)-1H-indole-5-carboxylic acid]",26 ± 2.3,19 ± 2.5,
"O=C(O)c1ccc2c(c1)c(CCc1ccc(Cl)cc1)c(CCc1nc3cc(Cl)ccc3s1)n2CCc1nn[nH]n1 [Compound 30, 1-(2-(2H-tetrazol-5-yl)ethyl)-2-(2-(5-chlorobenzo[d]thiazol-2-yl)ethyl)-3-(4-chlorophenethyl)-1H-indole-5-carboxylic acid]",1.1 ± 0.27,1.6 ± 0.63,2.5 ± 1.5
"O=C(O)c1ccc2c(c1)c(CCc1ccccc1)c(CCc1nc3ccccc3s1)n2CCc1nn[nH]n1 [Compound 25, 1-(2-(2H-tetrazol-5-yl)ethyl)-2-(2-(benzo[d]thiazol-2-yl)ethyl)-3-phenethyl-1H-indole-5-carboxylic acid]",11 ± 3.9,4.1 ± 0.88,
"COc1ccc2sc(CCc3c(CCc4ccc(Cl)cc4)c4cc(C(=O)N[C@H]5CC[C@H](N)CC5)ccc4n3CCc3nn[nH]n3)nc2c1 [Compound 69, (1r,4r)-4-(1-(2-(2H-tetrazol-5-yl)ethyl)-3-(4-chlorophenethyl)-2-(2-(5-methoxybenzo[d]thiazol-2-yl)ethyl)-1H-indole-5-carboxamido)cyclohexan-1-aminium]",> 24,> 22,
COc1ccc(CCc2cn(CCc3nn[nH]n3)c3ccc(C(=O)O)cc23)cc1 [Compound 8],78 ± 10,,
"COc1ccc2sc(CCc3c(CCc4ccc(Cl)cc4)c4cc(C(=O)NCc5ccccc5Br)ccc4n3CCc3nn[nH]n3)nc2c1 [Compound 52, 1-(2-(2H-tetrazol-5-yl)ethyl)-N-(2-bromobenzyl)-3-(4-chlorophenethyl)-2-(2-(5-methoxybenzo[d]thiazol-2-yl)ethyl)-1H-indole-5-carboxamide]",1.5 ± 0.17,2.6 ± 0.59,
"O=C(O)c1ccc2c(c1)c(CCc1cccc3ccccc13)cn2CCc1nn[nH]n1 [Compound 14, 1-(2-(2H-tetrazol-5-yl)ethyl)-3-(2-(naphthalen-1-yl)ethyl)-1H-indole-5-carboxylic acid]",4.6 ± 0.36,3.5 ± 0.71,
"O=C(O)c1ccc2c(c1)c(CCc1cccc(Cl)c1)cn2CCc1nn[nH]n1 [Compound 11, 1-(2-(2H-tetrazol-5-yl)ethyl)-3-(3-chlorophenethyl)-1H-indole-5-carboxylic acid]",27 ± 4,12 ± 2.2,
"O=C(O)c1ccc2c(c1)c(CCc1ccc(N3CCOCC3)cc1)cn2CCc1nn[nH]n1 [Compound 19, 1-(2-(2H-tetrazol-5-yl)ethyl)-3-(4-morpholinophenethyl)-1H-indole-5-carboxylic acid]",> 51,,
"COc1ccc2sc(CCc3c(CCc4ccc(Cl)cc4)c4cc(C(=O)NCCc5ccc(Cl)cc5)ccc4n3CCc3nn[nH]n3)nc2c1 [Compound 49, 1-(2-(2H-tetrazol-5-yl)ethyl)-N,3-bis(4-chlorophenethyl)-2-(2-(5-methoxybenzo[d]thiazol-2-yl)ethyl)-1H-indole-5-carboxamide]",0.75 ± 0.23,3.2 ± 0.24,

# Further lines, results first:
Ki [1] [µM],Ki [2] [µM],"Ki (Assay 3, mean ± SD (n = 3), read-out: Ki ± SD, Assay 3) [µM]",SMILES
0.57 ± 0.052,0.7 ± 0.06,,"Cc1ccc(CCc2c(-c3csc4ccccc34)n(CCc3nn[nH]n3)c3ccc(C(=O)O)cc23)cc1 [Compound 79, 1-(2-(2H-tetrazol-5-yl)ethyl)-2-(benzo[b]thiophen-3-yl)-3-(4-methylphenethyl)-1H-indole-5-carboxylic acid]"
31 ± 5.8,,,"CONC(=O)c1ccc2c(c1)c(CCc1ccc(C)cc1)c(-c1ccsc1)n2CCc1nn[nH]n1 [Compound 91, 1-(2-(2H-tetrazol-5-yl)ethyl)-N-methoxy-3-(4-methylphenethyl)-2-(thiophen-3-yl)-1H-indole-5-carboxamide]"
0.92 ± 0.1,1.9 ± 0.13,,"Cc1ccc(CCc2c(-c3csc(C(F)F)c3)n(CCc3nn[nH]n3)c3ccc(C(=O)O)cc23)cc1 [Compound 80, 1-(2-(2H-tetrazol-5-yl)ethyl)-2-(5-(difluoromethyl)thiophen-3-yl)-3-(4-methylphenethyl)-1H-indole-5-carboxylic acid]"
> 25,> 25,,"O=C(NCc1ccon1)c1ccc2c(c1)c(CCC1CCOCC1)c(-c1ccsc1)n2CCc1nn[nH]n1 [Compound 96, 1-(2-(2H-tetrazol-5-yl)ethyl)-N-(isoxazol-3-ylmethyl)-3-(2-(tetrahydro-2H-pyran-4-yl)ethyl)-2-(thiophen-3-yl)-1H-indole-5-carboxamide]"
1.3 ± 0.4,1.2 ± 0.23,,"O=C(O)c1ccc2c(c1)c(CCC1CCOCC1)c(-c1ccsc1)n2CCc1nn[nH]n1 [Compound 86, 1-(2-(2H-tetrazol-5-yl)ethyl)-3-(2-(tetrahydro-2H-pyran-4-yl)ethyl)-2-(thiophen-3-yl)-1H-indole-5-carboxylic acid]"
1 ± 0.076,,,"COc1ccc2nc(C#Cc3c(CCc4ccc(C)cc4)c4cc(C(=O)O)ccc4n3CCc3nn[nH]n3)sc2c1 [Compound 73, 1-(2-(2H-tetrazol-5-yl)ethyl)-2-((6-methoxybenzo[d]thiazol-2-yl)ethynyl)-3-(4-methylphenethyl)-1H-indole-5-carboxylic acid]"
4.2 ± 0.29,6 ± 0.39,,"COc1ccc2nc(C#Cc3c(CCC4CCOCC4)c4cc(C(=O)O)ccc4n3CCc3nn[nH]n3)sc2c1 [Compound 74, 1-(2-(2H-tetrazol-5-yl)ethyl)-2-((6-methoxybenzo[d]thiazol-2-yl)ethynyl)-3-(2-(tetrahydro-2H-pyran-4-yl)ethyl)-1H-indole-5-carboxylic acid]"
